Laboratory results: patent US6245816A, “Benzoylphenylurea insecticides and methods of using certain benzoylphenylureas to control ants” (priority 2000, dated 2001)

What was measured:
Format in all cases: in vivo
[1] = test system: German cockroach 2nd instars (Blattella germanica); experiment: German cockroach 2nd instars, continuous, low-dose ingestion exposure (treated cornmeal); settings: for activity relative to hexaflumuron: continuous exposure; for activity relative to hexaflumuron / activities in cockroaches (Compounds 1, 2, and 3 compared): in words; for LC50 (ppm) 21 days / LC50 (ppm) 42 days: continuous ingestion exposure, treated cornmeal; for activities in cockroaches (Compounds 1, 2, and 3 compared): test not specified further, all three compounds were tested only under continuous exposure
Source text: German cockroach 2nd instars (Blattella germanica)
Continuous, low-dose ingestion exposure (treated cornmeal)

[2] = test system: Daphnia; experiment: Activity against Daphnia, 48 hr exposure to treated water
[3] = test system: German cockroach 2nd instars (Blittella germanica); experiment: German cockroach 2nd instars, limited ingestion exposure (48 hr) to treated cornmeal; settings: for potency relative to hexaflumuron: limited exposure, at both 21 and 42 days after exposure, in words
Source text: German cockroach 2nd instars (Blittella germanica)
Limited ingestion exposure (48 hr) to treated cornmeal

[4] = test system: Subterranean Termite (Reticulitermes flavipes); experiment: Subterranean termite, continuous exposure (56 days) to treated paper; settings: for LC50 (ppm) 35 days / LC50 (ppm) 56 days: continuous exposure to treated paper; for potency and speed of action relative to hexaflumuron: continuous exposure, in words
Source text: (§1) Subterranean Termite (Reticulitermes flavipes)
Continuous exposure (56 days) to treated paper

[5] = test system: Cat Flea (Ctenocephalides felis); experiment: Cat flea, continuous exposure of larvae to treated media, impact on subsequent adult emergence; settings: for efficacy relative to hexaflumuron: cat fleas, in words
Source text: Cat Flea (Ctenocephalides felis)
Continuous exposure of larvae to treated media, impact on subsequent adult emergence

[6] = test system: Red Imported Fire Ant (RIFA) (Solenopsis inivicta); experiment: Laboratory ant bait study, Red Imported Fire Ant, brood reduction; settings: for Time to Achieve 50% Brood Reduction / Time to Achieve 90% Brood Reduction: RIFA, 3-4 day exposure
Method: (§2) Laboratory ant bait studies were carried out with Red Imported Fire Ant (RIFA) (Solenopsis inivicta) and Pharaoh Ant (Monomorium pharionis). Chitin synthesis inhibitors, such as the compounds of the invention, control ants by killing the molting larvae and/or pupae and potentially preventing the hatching of eggs. Because adult workers are not affected, control is measured by effects on the brood. The studies involved 3-4 day exposure to bait. These limited exposure studies more accurately represent real world bait availability than continuous exposure.

[7] = test system: Pharaoh Ant (Monomorium pharionis); experiment: Laboratory ant bait study, Pharaoh Ant, brood reduction; settings: 0.1% in bait, 3-4 day exposure
Method: as §2

[8] = test system: Subterranean Termite (Reticulitermes flavipes); experiment: Subterranean termite, limited exposure (7 days), mortality at 14, 28, 42 and 56 days; settings: high rate, in words
Source text: as §1
Limited exposure (7 days) with mortality determined at 14, 28, 42, and 56 days

[9] = 0.1% in bait, NA = not achieved
[10] = limited ingestion exposure (48 hr), treated cornmeal
[11] = continuous exposure of larvae to treated media, subsequent adult emergence

| Compound | activity relative to hexaflumuron [1] | LC50 (ppm) 21 days [1] | LC50 (ppm) 42 days [1] | activities in cockroaches (Compounds 1, 2, and 3 compared) [1] | potency relative to hexaflumuron [3] | LC50 (ppm) 35 days [4] | LC50 (ppm) 56 days [4] | potency and speed of action relative to hexaflumuron [4] | efficacy relative to hexaflumuron [5] | LC50 (ppm) 42 days [3, 10] | other results |
| --- | --- | --- | --- | --- | --- | --- | --- | --- | --- | --- | --- |
| CCN(C(=O)NC(=O)c1c(F)cccc1F)c1cc(Cl)c(OC(F)(F)C(F)C(F)(F)F)c(Cl)c1F (stereo not shown) [Compound 2, N-[3,5-Dichloro-2-fluoro-4-(1,1,2,3,3,3-hexafluoropropoxy)phenyl]-N'-(2,6-difluorobenzoyl)-N-ethylurea] | far more active than hexaflumuron | 0.35 ppm | 0.26 ppm | quite similar | more potent than hexaflumuron | < 0.78 ppm | < 0.78 ppm | more potent and quicker acting than hexaflumuron | far more efficacious than hexaflumuron | – | activity against Daphnia relative to Compound 1 and hexaflumuron ([2]; in vivo): much less active against Daphnia than were Compound 1 and hexaflumuron |
| O=C(NC(=O)c1c(F)cccc1F)Nc1cc(Cl)c(OC(F)(F)C(F)C(F)(F)F)c(Cl)c1F (stereo not shown) [Compound 1, N-[3,5-Dichloro-2-fluoro-4-(1,1,2,3,3,3-hexafluoropropoxy)phenyl]-N'-(2,6-difluorobenzoyl)urea] | far more active than hexaflumuron | < 2.2 ppm | < 0.78 ppm | quite similar | more potent than hexaflumuron | – | < 0.78 ppm | more potent and quicker acting than hexaflumuron | far more efficacious than hexaflumuron | < 9.1 ppm | Time to Achieve 50% Brood Reduction [6, 9]: 2 wks; Time to Achieve 90% Brood Reduction [6, 9]: 3 wks; potency relative to hexaflumuron ([6]; short exposure study with RIFA, in words): significantly more potent than hexaflumuron; LC50 (ppm) [5, 11]: 2.8 ppm; LC90 (ppm) [5, 11]: 22 ppm; Percent brood reduction achieved at end of study ([7]; @ 13 wks): 70%; Time to Achieve 50% Brood Reduction ([7]; NA = not achieved): 4 wks; mortality relative to hexaflumuron [8]: induced more mortality earlier than did hexaflumuron |
| CCN(C(=O)Nc1cc(Cl)c(OC(F)(F)C(F)C(F)(F)F)c(Cl)c1F)C(=O)c1c(F)cccc1F (stereo not shown) [Compound 3, N-[3,5-Dichloro-2-fluoro-4-(1,1,2,3,3,3-hexafluoropropoxy)phenyl]-N'-(2,6-difluorobenzoyl)-N'-ethyl urea] | far more active than hexaflumuron | 8.0 ppm | 1.5 ppm | quite similar | – | – | – | – | – | – | activity against Daphnia relative to Compound 1 and hexaflumuron ([2]; in words): much less active against Daphnia than were Compound 1 and hexaflumuron |
| O=C(NC(=O)c1c(F)cccc1F)Nc1cc(Cl)c(OC(F)(F)C(F)F)c(Cl)c1 [hexaflumuron, reference compound] | – | > 200 ppm | > 200 ppm | – | – | > 200 ppm | 1.3 ppm | – | – | > 10,000 ppm | Time to Achieve 50% Brood Reduction ([6]; 0.25% in bait): 4 wks; Time to Achieve 90% Brood Reduction ([6]; 0.25% in bait): 10 wks; LC50 (ppm) 21 days ([3]; limited ingestion exposure (48 hr), treated cornmeal, 21 days): > 10,000 ppm |
